Patent US11919901B2 (Syndax Pharmaceuticals, Inc., priority 2021, dated 2024)

Tested on: MV4-11 cells
Assay: Cell proliferation assay MV4;11 (CellTiter-Glo, 72 hours)
Type: cell-based
Settings: Homo sapiens; MV4;11 leukemia cell line, 72 hours; read-out: MV4; 11 IC50
Procedure: Compounds were evaluated for its capacity to inhibit the proliferation of the MLLr leukemia cell line MV4-11 that harbors an MLL1-AF4 fusion protein. MV4-11 cells were cultured for 72 hours with limiting dilutions of compounds and viability was measured using CellTiter-Glo.
Compounds were dissolved to obtain as 10 mM solution in DMSO. The stock was diluted 1:5 to the top concentration of 2 mM in 100% DMSO. For IC50 determination, serial 1:3.16 dilutions were prepared in 100% DMSO by diluting 20 μL into 43.5 μL of DMSO for 8 concentrations. Each prepared DMSO solution were further diluted 1:500 in the cell culture media to obtain the 2× dosing solutions. The final concentrations of tested compounds in the cell culture media ranged from 0.632 nM to 2000 nM.
MV4-11 cells were cultured in IMDM with 10% FBS and 1× Penicillin-Streptomycin at 5% CO2 and 37° C. A cell suspension was prepared containing 15,000 cells/ml in the culture medium and 100 μL of this suspension was added per well to a 96-well cell culture plate. Then, 100 μL of 2× dosing media containing test compounds were added bringing the total volume to 200 μL. These cells were cultured for 72 hours at 37° C. and 5% CO2 in a humidified incubator.
After 72 hours, the cultured cells were mixed and 100p L was transferred to a 96-well black plate. Cell Titer Glo (100 μl) was then added to this plate. The plate was mixed with shaking for 15 mins at RT, the luminescence was then measured using Tecan Spark 20M spectrophotometer. Cell Viability (%) was determined by RLU of test/RLU average vehicle control*100 and % max inhibition was determined by 100−(% cell viability remaining at the top concentration of compound).

SMILES	IC50
CCN(C(=O)c1cc(F)ccc1Oc1cncnc1N1CC2(CCN(C[C@@H]3CC[C@@H](NS(=O)(=O)C4CCC4)CO3)CC2)C1)C(C)C [Example 6, 2-((4-(7-(((2S,5R)-5-(Cyclobutanesulfonamido)tetrahydro-2H-pyran-2-yl)methyl)-2,7-diazaspiro[3.5]nonan-2-yl)pyrimidin-5-yl)oxy)-N-ethyl-5-fluoro-N-isopropylbenzamide]	< 100 nM
CCN(C(=O)c1cc(F)ccc1Oc1cncnc1N1CC2(CCN(C[C@@H]3CC[C@@H](NS(=O)(=O)CC4CC4)CO3)CC2)C1)C(C)C [Example 7, 2-((4-(7-(((2S,5R)-5-((Cyclopropylmethyl)sulfonamido)tetrahydro-2H-pyran-2-yl)methyl)-2,7-diazaspiro[3.5]nonan-2-yl)pyrimidin-5-yl)oxy)-N-ethyl-5-fluoro-N-isopropylbenzamide]	< 100 nM
CCN(C(=O)c1cc(F)ccc1Oc1cncnc1N1CC2(CCN(C[C@@H]3CC[C@@H](NS(=O)(=O)CCOC)CO3)CC2)C1)C(C)C [Example 8, N-Ethyl-5-fluoro-N-isopropyl-2-((4-(7-(((2S,5R)-5-((2-methoxyethyl)sulfonamido)tetrahydro-2H-pyran-2-yl)methyl)-2,7-diazaspiro[3.5]nonan-2-yl)pyrimidin-5-yl)oxy)benzamide]	< 100 nM
CCCS(=O)(=O)N[C@@H]1CC[C@@H](CN2CCC3(CC2)CN(c2ncncc2Oc2ccc(F)cc2C(=O)N(CC)C(C)C)C3)OC1 [Example 9, N-Ethyl-5-fluoro-N-isopropyl-2-((4-(7-(((2S,5R)-5-(propylsulfonamido)tetrahydro-2H-pyran-2-yl)methyl)-2,7-diazaspiro[3.5]nonan-2-yl)pyrimidin-5-yl)oxy)benzamide]	< 100 nM
CCN(C(=O)c1cc(F)ccc1Oc1cncnc1N1CC2(CCN(C[C@@H]3CC[C@@H](NC(=O)OC(C)(C)C)CO3)CC2)C1)C(C)C [Example 11, tert-Butyl ((3R,6S)-6-((2-(5-(2-(ethyl(isopropyl)carbamoyl)-4-fluorophenoxy)pyrimidin-4-yl)-2,7-diazaspiro[3.5]nonan-7-yl)methyl)tetrahydro-2H-pyran-3-yl)carbamate]	< 100 nM
CC(C)N(C(=O)c1cc(F)ccc1Oc1cncnc1N1CC2(CCN(C[C@@H]3CC[C@@H](NS(C)(=O)=O)CO3)CC2)C1)C(C)C [Example 12, 5-Fluoro-N,N-diisopropyl-2-((4-(7-(((2S,5R)-5-(methylsulfonamido)tetrahydro-2H-pyran-2-yl)methyl)-2,7-diazaspiro[3.5]nonan-2-yl)pyrimidin-5-yl)oxy)benzamide]	< 100 nM
CCS(=O)(=O)N[C@@H]1CC[C@@H](CN2CCC3(CC2)CN(c2ncncc2Oc2ccc(F)cc2C(=O)N(C(C)C)C(C)C)C3)OC1 [Example 13, 2-((4-(7-(((2S,5R)-5-(Ethylsulfonamido)tetrahydro-2H-pyran-2-yl)methyl)-2,7-diazaspiro[3.5]nonan-2-yl)pyrimidin-5-yl)oxy)-5-fluoro-N,N-diisopropylbenzamide]	< 100 nM
CC(C)N(C(=O)c1cc(F)ccc1Oc1cncnc1N1CC2(CCN(C[C@@H]3CC[C@@H](NS(=O)(=O)C(C)C)CO3)CC2)C1)C(C)C [Example 14, 5-Fluoro-N,N-diisopropyl-2-((4-(7-(((2S,5R)-5-((1-methylethyl)sulfonamido)tetrahydro-2H-pyran-2-yl)methyl)-2,7-diazaspiro[3.5]nonan-2-yl)pyrimidin-5-yl)oxy)benzamide]	< 100 nM
CC(C)N(C(=O)c1cc(F)ccc1Oc1cncnc1N1CC2(CCN(C[C@@H]3CC[C@@H](NS(=O)(=O)C4CC4)CO3)CC2)C1)C(C)C [Example 15, 2-((4-(7-(((2S,5R)-5-(Cyclopropanesulfonamido)tetrahydro-2H-pyran-2-yl)methyl)-2,7-diazaspiro[3.5]nonan-2-yl)pyrimidin-5-yl)oxy)-5-fluoro-N,N-diisopropylbenzamide]	< 100 nM
CC(C)N(C(=O)c1cc(F)ccc1Oc1cncnc1N1CC2(CCN(C[C@@H]3CC[C@@H](NS(=O)(=O)C4COC4)CO3)CC2)C1)C(C)C [Example 16, 5-Fluoro-N,N-diisopropyl-2-((4-(7-(((2S,5R)-5-(oxetane-3-sulfonamido)tetrahydro-2H-pyran-2-yl)methyl)-2,7-diazaspiro[3.5]nonan-2-yl)pyrimidin-5-yl)oxy)benzamide]	< 100 nM
CC(C)N(C(=O)c1cc(F)ccc1Oc1cncnc1N1CC2(CCN(C[C@@H]3CC[C@@H](NC(=O)OC(C)(C)C)CO3)CC2)C1)C1CC1 [Example 17, tert-Butyl ((3R,6S)-6-((2-(5-(2-(cyclopropyl(isopropyl)carbamoyl)-4-fluorophenoxy)pyrimidin-4-yl)-2,7-diazaspiro[3.5]nonan-7-yl)methyl)tetrahydro-2H-pyran-3-yl)carbamate]	< 100 nM
CCS(=O)(=O)N[C@@H]1CC[C@@H](CN2CCC3(CC2)CN(c2ncncc2Oc2ccc(F)cc2C(=O)N(C(C)C)C2CC2)C3)OC1 [Example 19, N-Cyclopropyl-2-((4-(7-(((2S,5R)-5-(ethylsulfonamido)tetrahydro-2H-pyran-2-yl)methyl)-2,7-diazaspiro[3.5]nonan-2-yl)pyrimidin-5-yl)oxy)-5-fluoro-N-isopropylbenzamide]	< 100 nM
CC(C)N(C(=O)c1cc(F)ccc1Oc1cncnc1N1CC2(CCN(C[C@@H]3CC[C@@H](NS(=O)(=O)C(C)C)CO3)CC2)C1)C1CC1 [Example 20, N-Cyclopropyl-5-fluoro-N-isopropyl-2-((4-(7-(((2S,5R)-5-((1-methylethyl)sulfonamido)tetrahydro-2H-pyran-2-yl)methyl)-2,7-diazaspiro[3.5]nonan-2-yl)pyrimidin-5-yl)oxy)benzamide]	< 100 nM
CC(C)N(C(=O)c1cc(F)ccc1Oc1cncnc1N1CC2(CCN(C[C@@H]3CC[C@@H](NS(=O)(=O)C4CC4)CO3)CC2)C1)C1CC1 [Example 21, 2-((4-(7-(((2S,5R)-5-(Cyclopropanesulfonamido)tetrahydro-2H-pyran-2-yl)methyl)-2,7-diazaspiro[3.5]nonan-2-yl)pyrimidin-5-yl)oxy)-N-cyclopropyl-5-fluoro-N-isopropylbenzamide]	< 100 nM
CC(C)N(C(=O)c1cc(F)ccc1Oc1cncnc1N1CC2(CCN(C[C@@H]3CC[C@@H](NS(=O)(=O)C4COC4)CO3)CC2)C1)C1CC1 [Example 22, N-Cyclopropyl-5-fluoro-N-isopropyl-2-((4-(7-(((2S,5R)-5-(oxetane-3-sulfonamido)tetrahydro-2H-pyran-2-yl)methyl)-2,7-diazaspiro[3.5]nonan-2-yl)pyrimidin-5-yl)oxy)benzamide]	100 to 1000 nM
C[C@@H]1COC[C@H](C)N1C(=O)c1cc(F)ccc1Oc1cncnc1N1CC2(CCN(C[C@@H]3CC[C@@H](NS(C)(=O)=O)CO3)CC2)C1 [Example 23, N-((3R,6S)-6-((2-(5-(2-((3S,5R)-3,5-Dimethylmorpholine-4-carbonyl)-4-fluorophenoxy)pyrimidin-4-yl)-2,7-diazaspiro[3.5]nonan-7-yl)methyl)tetrahydro-2H-pyran-3-yl)methanesulfonamide]	100 to 1000 nM
CCS(=O)(=O)N[C@@H]1CC[C@@H](CN2CCC3(CC2)CN(c2ncncc2Oc2ccc(F)cc2C(=O)N2[C@H](C)COC[C@@H]2C)C3)OC1 [Example 24, N-((3R,6S)-6-((2-(5-(2-((3S,5R)-3,5-dimethylmorpholine-4-carbonyl)-4-fluorophenoxy)pyrimidin-4-yl)-2,7-diazaspiro[3.5]nonan-7-yl)methyl)tetrahydro-2H-pyran-3-yl)ethanesulfonamide]	< 100 nM
